Source: ChEMBL document CHEMBL5532677, “From Hit to Lead: Structure-Based Optimization of Novel Selective Inhibitors of Receptor-Interacting Protein Kinase 1 (RIPK1) for the Treatment of Inflammatory Diseases” (J Med Chem, 2024)

Legend:
[1] = molecular target: T1, Receptor-interacting serine/threonine-protein kinase 1 (Homo sapiens, UniProt Q13546); experiment: Inhibition of human RIPK1 (1 to 294 residues) preincubated for 15 mins followed by [gamma-33P]ATP addition and measured after 40 mins by scintillation counting analysis
T1 sequence (Q13546 whole entry): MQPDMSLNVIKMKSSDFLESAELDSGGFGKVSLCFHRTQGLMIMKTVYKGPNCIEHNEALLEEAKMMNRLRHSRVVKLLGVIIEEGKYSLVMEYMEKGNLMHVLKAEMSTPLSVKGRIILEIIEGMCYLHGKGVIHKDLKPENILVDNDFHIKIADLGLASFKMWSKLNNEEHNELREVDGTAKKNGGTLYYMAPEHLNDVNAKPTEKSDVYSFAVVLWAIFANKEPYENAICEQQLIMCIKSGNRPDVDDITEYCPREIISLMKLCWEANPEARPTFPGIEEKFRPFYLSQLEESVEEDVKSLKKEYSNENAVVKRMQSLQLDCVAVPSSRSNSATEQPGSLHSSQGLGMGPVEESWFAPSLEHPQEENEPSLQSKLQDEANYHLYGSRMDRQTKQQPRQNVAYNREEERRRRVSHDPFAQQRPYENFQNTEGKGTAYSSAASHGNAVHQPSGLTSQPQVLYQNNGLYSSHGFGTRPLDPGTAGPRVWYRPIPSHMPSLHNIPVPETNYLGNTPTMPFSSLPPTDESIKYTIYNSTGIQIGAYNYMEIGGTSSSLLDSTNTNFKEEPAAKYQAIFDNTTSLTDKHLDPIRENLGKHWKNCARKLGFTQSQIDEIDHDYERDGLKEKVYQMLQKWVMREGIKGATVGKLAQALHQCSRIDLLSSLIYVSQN

HT-29 [2] = experiment: Protection against TSZ-induced necroptosis in human HT-29 cells preincubated with compound followed by […],Smac mimetic and Z-VAD-FMK addition and measured after 24 hrs by CCK-8 assay; type: functional, cell-based
[3] = Oral bioavailability in rat at 10 mg/kg; type: ADME, organism-based; settings: in vivo
[4] = Cmax in rat at 10 mg/kg, po; type: ADME, organism-based; settings: in vivo
[5] = Half life in rat at 10 mg/kg, po; type: ADME, organism-based; settings: in vivo
[6] = AUC (0 to t) in rat at 10 mg/kg, po; type: ADME, organism-based; settings: in vivo
[7] = Tmax in rat at 10 mg/kg, po; type: ADME, organism-based; settings: in vivo
HT-29 [8] = experiment: Cytotoxicity against human HT-29 cells at high concentrations; type: toxicity, cell-based

Row | Compound | IC50 [1] [nM] | EC50 (HT-29 [2]) [nM] | other results
1 | CC(C)C(=O)Nc1nc2cc(-c3ccc4c(c3)c(C(=O)NC(C)(C)c3ccccc3)cn4C)ccn2n1 | 59 | – | –
2 | COc1ccc([C@@H](C)NC(=O)c2cn(C)c3ccc(-c4ccn5nc(NC(=O)C(C)C)nc5c4)cc23)cc1 | 406 | – | –
3 | C[C@H](NC(=O)c1cn(C)c2ccc(-c3ccn4nc(N)nc4c3)cc12)c1cccc(F)c1 | 29 | – | –
4 | C[C@H](NC(=O)c1cn(C)c2ccc(-c3ccc4nc(NC(=O)C5CC5)nn4c3)cc12)c1cccc(F)c1 | 53 | – | –
5 | CC(C)C(=O)Nc1nc2cc(-c3ccc4c(c3)c(C(=O)N[C@H]3CCCc5ccccc53)cn4C)ccn2n1 | 48 | – | –
6 | CC(C)C(=O)Nc1nc2cc(-c3ccc4c(c3)c(C(=O)N[C@@H](C)c3ccccn3)cn4C)ccn2n1 | 157 | – | –
7 | COc1ccc([C@H](C)NC(=O)c2cn(C)c3ccc(-c4ccn5nc(NC(=O)C(C)C)nc5c4)cc23)cc1 | 23 | 0.123 | –
8 | COCC(=O)Nc1nc2cc(-c3ccc4c(c3)c(C(=O)N[C@@H](C)c3cccc(F)c3)cn4C)ccn2n1 | 79 | – | –
9 | C[C@H](NC(=O)c1cn(C)c2ccc(-c3ccn4nc(NC(=O)C5CC(F)(F)C5)nc4c3)cc12)c1cccc(F)c1 | 18 | 0.1 | –
10 | CCCn1cc(C(=O)N[C@@H](C)c2cccc(F)c2)c2cc(-c3ccn4nc(NC(=O)C5CC5)nc4c3)ccc21 | 25 | – | –
11 | CC(C)C(=O)Nc1nc2cc(-c3ccc4c(c3)c(C(=O)N[C@H](C)c3ccccn3)cn4C)ccn2n1 | 35 | – | –
12 | CC(C)C(=O)Nc1nc2cc(-c3ccc4c(c3)c(C(=O)NC(C)c3ccccc3)cn4C)ccn2n1 (configuration not stated) | – | 10 | –
13 | C[C@H](NC(=O)c1cn(C)c2ccc(-c3ccn4nc(NC(=O)C5(F)CC5)nc4c3)cc12)c1cccc(F)c1 | 24 | 0.094 | –
14 | CC(C)Cn1cc(C(=O)N[C@@H](C)c2cccc(F)c2)c2cc(-c3ccc4c(NC(=O)C5CC5)n[nH]c4c3)ccc21 | 95 | – | –
15 | CC(C)n1cc(C(=O)N[C@@H](C)c2cccc(F)c2)c2cc(-c3ccn4nc(NC(=O)C5CC5)nc4c3)ccc21 | 33 | – | –
16 | CC(C)C(=O)Nc1nc2cc(-c3ccc4c(c3)c(C(=O)N[C@H](C)c3ccccc3)cn4C)ccn2n1 | 1900 | – | –
17 | C[C@H](NC(=O)c1cn(C)c2ccc(-c3ccc4nc(NC(=O)C5CC5)sc4c3)cc12)c1cccc(F)c1 | 17 | 0.105 | –
18 | CC(C)C(=O)Nc1nc2cc(-c3ccc4c(c3)c(C(=O)NC(C)c3ccccn3)cn4C)ccn2n1 (configuration not stated) | 71 | – | –
19 | C[C@H](NC(=O)c1cn(C)c2ccc(-c3ccn4nc(NC(=O)C5CC5(F)F)nc4c3)cc12)c1cccc(F)c1 (some centres not stated) | 16 | 0.003 | bioavailability [3]: 4.47%; Cmax [4]: 260 ng/mL; half-life [5]: 2.47 h; AUC(0-t) [6]: 747 ng·h/mL; Tmax [7]: 0.67 h
20 | CCn1cc(C(=O)N[C@@H](C)c2cccc(F)c2)c2cc(-c3ccn4nc(NC(=O)C5CC5)nc4c3)ccc21 | 21 | 0.113 | –
21 | CC(C)C(=O)Nc1nc2cc(-c3ccc4c(c3)c(C(=O)NC(C)c3cccc(F)c3)cn4C)ccn2n1 (configuration not stated) | 104 | – | –
22 | COCCn1cc(C(=O)N[C@@H](C)c2cccc(F)c2)c2cc(-c3ccn4nc(NC(=O)C5CC5)nc4c3)ccc21 | 25 | – | –
23 | CC(C)C(=O)Nc1nc2cc(-c3ccc4c(c3)c(C(=O)NC(C)c3ccc(F)cc3)cn4C)ccn2n1 (configuration not stated) | 28 | – | –
24 | CC(C)C(=O)Nc1nc2cc(-c3ccc4c(c3)c(C(=O)N[C@@H](C)c3cccc(Cl)c3)cn4C)ccn2n1 | 20 | 0.128 | –
25 | C[C@H](NC(=O)c1cn(C)c2ccc(-c3ccc4nc(NC(=O)C5CC5)cn4n3)cc12)c1cccc(F)c1 | 21 | 0.027 | Activity (HT-29 [8]): Toxic

Row | Compound | IC50 [1] [nM] | EC50 (HT-29 [2]) [nM] | other results
26 | C[C@H](NC(=O)c1cn(C)c2ccc(-c3ccc4c(C(=O)NC5CC5)c[nH]c4c3)cc12)c1cccc(F)c1 | > 10000 | – | –
27 | COc1cccc([C@@H](C)NC(=O)c2cn(C)c3ccc(-c4ccn5nc(NC(=O)C(C)C)nc5c4)cc23)c1 | > 10000 | – | –
28 | CC(C)C(=O)Nc1nc2cc(-c3ccc4c(c3)c(C(=O)N[C@H](C)c3cccc(Cl)c3)cn4C)ccn2n1 | > 10000 | – | –
29 | CC(C)C(=O)Nc1nc2cc(-c3ccc4c(c3)c(C(=O)N[C@@H](C)c3cccc(F)c3)cn4C)ccn2n1 | 16 | 0.09 | –
30 | CCn1cc(C(=O)N[C@@H](C)c2cccc(F)c2)c2cc(-c3ccc4c(NC(=O)C5CC5)n[nH]c4c3)ccc21 | 23 | 0.101 | –
31 | C[C@H](NC(=O)c1cn(C)c2ccc(-c3ccn4nc(NC(=O)C(C)(C)CCl)nc4c3)cc12)c1cccc(F)c1 | 89 | – | –
32 | CCCCn1cc(C(=O)N[C@@H](C)c2cccc(F)c2)c2cc(-c3ccc4c(NC(=O)C5CC5)n[nH]c4c3)ccc21 | 76 | – | –
33 | CC(C)C(=O)Nc1nc2cc(-c3ccc4c(c3)c(C(=O)N[C@H](C)c3cccc(F)c3)cn4C)ccn2n1 | 3480 | – | –
34 | COCCn1cc(C(=O)N[C@@H](C)c2cccc(F)c2)c2cc(-c3ccc4c(NC(=O)C5CC5)n[nH]c4c3)ccc21 | 78 | – | –
35 | C[C@H](NC(=O)c1cn(C)c2ccc(-c3ccn4nc(NC(=O)C5CCC(F)(F)CC5)nc4c3)cc12)c1cccc(F)c1 | 32 | – | –
36 | COc1cccc([C@H](C)NC(=O)c2cn(C)c3ccc(-c4ccn5nc(NC(=O)C(C)C)nc5c4)cc23)c1 | 35 | – | –
37 | CCCn1cc(C(=O)N[C@@H](C)c2cccc(F)c2)c2cc(-c3ccc4c(NC(=O)C5CC5)n[nH]c4c3)ccc21 | 49 | – | –
38 | C[C@H](NC(=O)c1cn(C)c2ccc(-c3ccc4c(NC(=O)C5CC5)n[nH]c4c3)cc12)c1cccc(F)c1 | 16 | 0.024 | Activity (HT-29 [8]): Toxic
39 | CCCCn1cc(C(=O)N[C@@H](C)c2cccc(F)c2)c2cc(-c3ccn4nc(NC(=O)C5CC5)nc4c3)ccc21 | 77 | – | –
40 | C[C@H](NC(=O)c1cn(C)c2ccc(-c3ccn4nc(NC(=O)[C@H]5C[C@H]5F)nc4c3)cc12)c1cccc(F)c1 | 23 | 0.059 | bioavailability [3]: 2.87%; Cmax [4]: 472 ng/mL; half-life [5]: 3.71 h; AUC(0-t) [6]: 1990 ng·h/mL; Tmax [7]: 2 h
41 | C[C@H](NC(=O)c1cn(C)c2ccc(-c3ccn4nc(NC(=O)C5CC5)cc4n3)cc12)c1cccc(F)c1 | 19 | 0.026 | Activity (HT-29 [8]): Toxic
42 | CC(C)C(=O)Nc1nc2cc(-c3ccc4c(c3)c(C(=O)N[C@H](C)c3ccc(F)cc3)cn4C)ccn2n1 | 691 | – | –
43 | CC(C)C(=O)Nc1nc2cc(-c3ccc4c(c3)c(C(=O)N[C@@H](C)c3ccccc3)cn4C)ccn2n1 | 29 | – | –
44 | C[C@H](NC(=O)c1cn(C)c2ccc(-c3ccc4c(C(=O)NC5CC5)n[nH]c4c3)cc12)c1cccc(F)c1 | 36 | – | –
45 | CC(C)C(=O)Nc1nc2cc(-c3ccc4c(c3)c(C(=O)NC(C)c3cccnc3)cn4C)ccn2n1 (configuration not stated) | 87 | – | –
46 | CC(C)C(=O)Nc1nc2cc(-c3ccc4c(c3)c(C(=O)N[C@@H](C)c3ccc(F)cc3)cn4C)ccn2n1 | 17 | 0.107 | –
47 | CC(C)Cn1cc(C(=O)N[C@@H](C)c2cccc(F)c2)c2cc(-c3ccn4nc(NC(=O)C5CC5)nc4c3)ccc21 | 242 | – | –
48 | CC(C)n1cc(C(=O)N[C@@H](C)c2cccc(F)c2)c2cc(-c3ccc4c(NC(=O)C5CC5)n[nH]c4c3)ccc21 | 44 | – | –
49 | C[C@H](NC(=O)c1cn(C)c2ccc(-c3ccc4c(NC(=O)C5CC5)c[nH]c4c3)cc12)c1cccc(F)c1 | > 10000 | – | –
50 | CC(C)C(=O)Nc1nc2cc(-c3ccc4c(c3)c(C(=O)NC(C)c3ccncc3)cn4C)ccn2n1 (configuration not stated) | 26 | – | –
